Here are results for 13 compounds from patent publication US20090196912A1, “Pyridinylamines” (GPC Botech AG, priority 2004, published 2009).

Test in all cases: Generic kinase assay (33P-ATP, Myelin Basic Protein)
Holding throughout (assay type): biochemical

One experiment concerns the target RICK (Homo sapiens, UniProt O43353). Conditions: class symbol: % inhibition at 10 μM or IC50; for inhibition at 10 µM: 1 h, read-out: Inhibitory effect on target RICK. As for the experimental part:
(§1) In order to determine the inhibitory effect of the compounds of the subject invention on various target enzymes a generic kinase assay was established.
(§2) Reactions were performed in 96-Well U-bottom microtiter plates (Greiner Bio-One; Frickenhausen/Germany, Cat. No. 650161), hereinafter designated “Assay Plates”. 10 μl of a solution comprising 40 μM Myelin Basic Protein (Invitrogen; Carlsbad, Calif./USA; Cat. No. 13228-010) and 4 μM ATP in three-fold concentrated Reaction Buffer (60 mM Tris-HCl, pH 7.5; 30 mM MgCl2; 3 mM dithiothreitol) were added into each well of the Assay Plate. 10 μl of serial dilutions of the compounds of the subject invention, dissolved in 4% DMSO, were then added into each well, except for Positive Control. Wells (C+ wells) and Negative Control Wells (C− wells). 10 μl of 4% DMSO without compounds were added to C+ and C− wells. 10 μl of a 500 mM solution of EDTA in water was then added to C− wells. Then 10 μl of a solution containing 50 μCi/ml Adenosine 5′-[γ-^33P]triphosphate in water was added to each well. To start the reaction 10 μl of the kinase to be assayed was added to each well. The optimal amount of kinase in the assay was determined to be the amount which yields to a turn-over of about 10% of ATP. Assay Plates were incubated for one hour at room temperature. Then 10 μl of a 500 mM solution of EDTA in water was added to each well except C− wells. Samples were now ready for measurement.
(§3) Measurements were preformed in 96-Well MAPH-Filter Plates (Millipore; Billerica, Mass./United States; Cat. No. MAPHNOB50), hereinafter designated “Measurement Plates”. Measurement Plates were washed with 200 μl of a 0.75% H3PO4 solution per well. The H3PO4 solution was exhausted using a Millipore vacuum station. 60 μl of a 0.75% H3PO4 solution was then added into each well, followed by the transfer of 30 μl of each well from the Assay Plate into the corresponding wells of the Measurement Plate. The Measurement Plate was incubated for 30 minutes at room temperature. Thereafter each well was washed three times with 200 μl of a 0.75% H3PO4 solution using a Millipore vacuum station. 20 μl of scintillation liquid (Supermix Liquid Szintillator; Perkin Elmer, Wellesley. Mass./United States; Cat. No. 1200-439) was then added to each well of the Measurement Plate. The plate was sealed and stored for 30 minutes in the darkness before radioactivity was quantified in a MicroBeta Scintillation Counter (Perkin Elmer, Wellesley. Mass./United States).

The target of another experiment is ROCK 2 (Homo sapiens, UniProt O75116). Conditions: class symbol: % inhibition at 10 μM or IC50; for inhibition at 10 µM: 1 h, read-out: Inhibitory effect on target ROCK 2. As for the experimental part:
as §1, §2, §3

The target in another experiment is p56Lck (Homo sapiens, UniProt P06239). Particulars: 1 h; class symbol: % inhibition at 10 μM or IC50; read-out: Inhibitory effect on target p56Lck. How it is done:
as §1, §2, §3

A further experiment has as its target cRaf (Homo sapiens, UniProt P04049). Conditions: 1 h; class symbol: % inhibition at 10 μM or IC50; read-out: Inhibitory effect on target cRaf. As for the experimental part:
as §1, §2, §3

A further experiment concerns PDGFR. Particulars: class symbol: % inhibition at 10 μM or IC50. How it is done:
as §1, §2, §3

The next experiment deals with Abl (Homo sapiens, UniProt P00519). Particulars: 1 h; class symbol: % inhibition at 10 μM or IC50; read-out: Inhibitory effect on target Abl. As for the experimental part: as §1, §2, §3
Abl, sequence (P00519 whole entry, species assumed): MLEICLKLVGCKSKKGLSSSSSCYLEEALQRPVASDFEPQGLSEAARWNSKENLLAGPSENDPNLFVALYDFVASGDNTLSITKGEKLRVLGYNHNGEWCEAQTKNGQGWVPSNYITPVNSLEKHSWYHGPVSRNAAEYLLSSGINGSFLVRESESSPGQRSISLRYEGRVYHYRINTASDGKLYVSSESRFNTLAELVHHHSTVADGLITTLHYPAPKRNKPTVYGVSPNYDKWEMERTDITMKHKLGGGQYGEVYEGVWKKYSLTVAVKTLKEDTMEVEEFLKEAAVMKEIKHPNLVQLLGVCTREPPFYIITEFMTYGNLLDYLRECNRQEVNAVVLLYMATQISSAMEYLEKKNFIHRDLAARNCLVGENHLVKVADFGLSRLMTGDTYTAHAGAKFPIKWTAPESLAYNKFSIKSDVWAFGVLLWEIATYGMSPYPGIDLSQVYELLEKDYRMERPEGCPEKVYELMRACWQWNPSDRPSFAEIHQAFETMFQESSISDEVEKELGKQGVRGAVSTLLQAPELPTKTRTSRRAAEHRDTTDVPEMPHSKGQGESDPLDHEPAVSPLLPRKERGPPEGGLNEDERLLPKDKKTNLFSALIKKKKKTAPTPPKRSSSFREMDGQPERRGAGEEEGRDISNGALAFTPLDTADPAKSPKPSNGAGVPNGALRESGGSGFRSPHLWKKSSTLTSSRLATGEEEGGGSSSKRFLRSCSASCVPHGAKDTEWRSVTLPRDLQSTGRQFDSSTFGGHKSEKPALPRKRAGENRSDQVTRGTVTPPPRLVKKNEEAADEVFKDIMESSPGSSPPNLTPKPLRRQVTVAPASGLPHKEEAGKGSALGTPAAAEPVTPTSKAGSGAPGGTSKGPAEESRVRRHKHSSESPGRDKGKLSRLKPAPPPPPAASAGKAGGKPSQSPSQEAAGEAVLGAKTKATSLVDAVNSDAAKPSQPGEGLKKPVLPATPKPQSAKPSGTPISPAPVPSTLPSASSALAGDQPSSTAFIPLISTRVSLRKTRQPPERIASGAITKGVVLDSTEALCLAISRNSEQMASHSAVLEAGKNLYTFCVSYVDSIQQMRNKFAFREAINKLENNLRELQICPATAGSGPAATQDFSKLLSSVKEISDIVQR
For another experiment, the target named is EGFR (Homo sapiens, UniProt P00533). Particulars: class symbol: % inhibition at 10 μM or IC50. As for the experimental part:
as §1, §2, §3

The next experiment deals with c-kit (Homo sapiens, UniProt P10721). Conditions: 1 h; class symbol: % inhibition at 10 μM or IC50; read-out: Inhibitory effect on target c-kit. As for the experimental part: as §1, §2, §3
c-kit, sequence (P10721 26-976): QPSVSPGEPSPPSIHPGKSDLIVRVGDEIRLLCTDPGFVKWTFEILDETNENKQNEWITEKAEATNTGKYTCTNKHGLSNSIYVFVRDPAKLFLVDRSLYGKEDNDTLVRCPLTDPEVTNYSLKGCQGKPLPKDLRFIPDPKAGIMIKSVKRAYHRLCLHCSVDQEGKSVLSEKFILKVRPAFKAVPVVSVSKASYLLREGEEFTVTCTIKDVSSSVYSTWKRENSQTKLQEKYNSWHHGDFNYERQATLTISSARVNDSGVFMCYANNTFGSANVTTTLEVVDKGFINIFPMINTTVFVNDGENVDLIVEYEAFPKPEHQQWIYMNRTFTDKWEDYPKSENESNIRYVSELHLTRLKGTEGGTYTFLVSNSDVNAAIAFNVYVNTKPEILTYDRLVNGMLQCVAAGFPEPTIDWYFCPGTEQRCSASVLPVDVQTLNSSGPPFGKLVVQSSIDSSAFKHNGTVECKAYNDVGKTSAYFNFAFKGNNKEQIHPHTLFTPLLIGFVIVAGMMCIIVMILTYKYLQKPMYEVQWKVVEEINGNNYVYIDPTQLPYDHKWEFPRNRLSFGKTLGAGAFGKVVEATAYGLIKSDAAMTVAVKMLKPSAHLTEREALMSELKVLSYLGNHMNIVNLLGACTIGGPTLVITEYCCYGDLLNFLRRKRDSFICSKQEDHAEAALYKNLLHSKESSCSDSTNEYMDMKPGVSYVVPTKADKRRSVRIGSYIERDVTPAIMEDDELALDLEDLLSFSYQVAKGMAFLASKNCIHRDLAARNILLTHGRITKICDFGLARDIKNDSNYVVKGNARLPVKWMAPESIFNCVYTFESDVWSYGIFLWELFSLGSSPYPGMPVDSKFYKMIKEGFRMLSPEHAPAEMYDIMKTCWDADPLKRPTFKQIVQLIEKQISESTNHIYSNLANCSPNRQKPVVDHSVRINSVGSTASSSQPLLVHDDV
The next experiment deals with CDK1/CyclinB (Homo sapiens, UniProt P06493). Particulars: class symbol: % inhibition at 10 μM or IC50. How it is done: as §1, §2, §3
The target in another experiment is CDK2/CyclinA (Homo sapiens, UniProt P24941). Particulars: class symbol: % inhibition at 10 μM or IC50. How it is done:
as §1, §2, §3

p56Lck, sequence (P06239 whole entry, species assumed): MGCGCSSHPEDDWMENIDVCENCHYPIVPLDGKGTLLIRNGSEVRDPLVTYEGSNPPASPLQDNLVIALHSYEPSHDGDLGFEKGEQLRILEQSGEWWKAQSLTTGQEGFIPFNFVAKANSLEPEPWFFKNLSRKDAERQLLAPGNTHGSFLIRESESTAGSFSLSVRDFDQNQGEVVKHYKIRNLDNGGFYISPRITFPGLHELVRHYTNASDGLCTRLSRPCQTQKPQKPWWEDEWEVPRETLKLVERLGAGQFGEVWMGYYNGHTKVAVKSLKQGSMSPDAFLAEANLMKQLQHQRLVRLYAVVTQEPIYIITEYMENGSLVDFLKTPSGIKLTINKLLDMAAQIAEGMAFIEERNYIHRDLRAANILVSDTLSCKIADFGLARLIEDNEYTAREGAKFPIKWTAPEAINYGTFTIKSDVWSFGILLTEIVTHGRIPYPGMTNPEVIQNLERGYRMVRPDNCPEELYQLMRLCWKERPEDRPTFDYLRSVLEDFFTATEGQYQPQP
EGFR, sequence (P00533 25-1210, species assumed): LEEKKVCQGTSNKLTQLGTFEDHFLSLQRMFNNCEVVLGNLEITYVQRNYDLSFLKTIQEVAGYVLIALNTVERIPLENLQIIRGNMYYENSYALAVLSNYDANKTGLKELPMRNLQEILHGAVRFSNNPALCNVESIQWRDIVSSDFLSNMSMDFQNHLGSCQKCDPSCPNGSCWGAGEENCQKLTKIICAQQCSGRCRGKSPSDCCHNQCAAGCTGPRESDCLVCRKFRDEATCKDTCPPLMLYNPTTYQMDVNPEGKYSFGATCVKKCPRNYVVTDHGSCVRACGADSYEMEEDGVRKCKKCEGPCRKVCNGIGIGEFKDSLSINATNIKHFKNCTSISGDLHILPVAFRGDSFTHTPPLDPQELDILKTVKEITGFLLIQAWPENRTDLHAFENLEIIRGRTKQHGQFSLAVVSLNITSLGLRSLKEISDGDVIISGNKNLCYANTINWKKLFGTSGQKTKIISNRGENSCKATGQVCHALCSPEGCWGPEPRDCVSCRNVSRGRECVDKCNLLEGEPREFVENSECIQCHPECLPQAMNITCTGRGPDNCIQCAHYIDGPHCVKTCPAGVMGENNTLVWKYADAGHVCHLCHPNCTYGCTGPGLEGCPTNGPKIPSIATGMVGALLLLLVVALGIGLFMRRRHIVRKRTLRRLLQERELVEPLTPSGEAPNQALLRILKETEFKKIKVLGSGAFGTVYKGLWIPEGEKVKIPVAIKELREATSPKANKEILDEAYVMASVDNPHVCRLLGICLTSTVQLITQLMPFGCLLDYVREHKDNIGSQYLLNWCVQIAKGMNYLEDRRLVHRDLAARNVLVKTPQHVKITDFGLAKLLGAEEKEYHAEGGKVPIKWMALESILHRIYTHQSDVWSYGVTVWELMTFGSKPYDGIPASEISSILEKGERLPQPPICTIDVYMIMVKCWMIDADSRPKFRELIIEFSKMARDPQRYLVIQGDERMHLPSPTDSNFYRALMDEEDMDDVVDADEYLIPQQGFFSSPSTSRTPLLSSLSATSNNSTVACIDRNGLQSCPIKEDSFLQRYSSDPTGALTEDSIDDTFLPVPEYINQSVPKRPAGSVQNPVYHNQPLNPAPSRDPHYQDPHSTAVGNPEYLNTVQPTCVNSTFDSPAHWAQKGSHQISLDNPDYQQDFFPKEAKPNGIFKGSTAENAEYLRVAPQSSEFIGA
cRaf, sequence (P04049 whole entry, species assumed): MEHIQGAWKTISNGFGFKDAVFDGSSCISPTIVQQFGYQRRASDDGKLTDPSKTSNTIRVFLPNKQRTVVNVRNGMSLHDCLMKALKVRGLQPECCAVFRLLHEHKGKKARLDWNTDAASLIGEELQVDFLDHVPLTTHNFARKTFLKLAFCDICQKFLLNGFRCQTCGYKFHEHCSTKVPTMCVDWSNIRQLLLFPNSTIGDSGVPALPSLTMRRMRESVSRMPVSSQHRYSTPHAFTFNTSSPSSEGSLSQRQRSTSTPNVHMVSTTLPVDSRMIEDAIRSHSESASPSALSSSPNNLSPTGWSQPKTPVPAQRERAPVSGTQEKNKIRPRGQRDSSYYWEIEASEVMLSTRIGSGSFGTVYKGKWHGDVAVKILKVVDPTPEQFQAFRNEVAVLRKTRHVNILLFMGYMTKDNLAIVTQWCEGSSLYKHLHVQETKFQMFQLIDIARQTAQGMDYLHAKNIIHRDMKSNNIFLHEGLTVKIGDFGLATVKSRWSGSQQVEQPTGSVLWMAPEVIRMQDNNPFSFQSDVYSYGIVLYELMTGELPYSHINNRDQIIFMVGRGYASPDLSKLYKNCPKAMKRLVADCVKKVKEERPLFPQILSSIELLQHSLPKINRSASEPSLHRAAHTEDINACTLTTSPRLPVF
RICK, sequence (O43353 whole entry, species assumed): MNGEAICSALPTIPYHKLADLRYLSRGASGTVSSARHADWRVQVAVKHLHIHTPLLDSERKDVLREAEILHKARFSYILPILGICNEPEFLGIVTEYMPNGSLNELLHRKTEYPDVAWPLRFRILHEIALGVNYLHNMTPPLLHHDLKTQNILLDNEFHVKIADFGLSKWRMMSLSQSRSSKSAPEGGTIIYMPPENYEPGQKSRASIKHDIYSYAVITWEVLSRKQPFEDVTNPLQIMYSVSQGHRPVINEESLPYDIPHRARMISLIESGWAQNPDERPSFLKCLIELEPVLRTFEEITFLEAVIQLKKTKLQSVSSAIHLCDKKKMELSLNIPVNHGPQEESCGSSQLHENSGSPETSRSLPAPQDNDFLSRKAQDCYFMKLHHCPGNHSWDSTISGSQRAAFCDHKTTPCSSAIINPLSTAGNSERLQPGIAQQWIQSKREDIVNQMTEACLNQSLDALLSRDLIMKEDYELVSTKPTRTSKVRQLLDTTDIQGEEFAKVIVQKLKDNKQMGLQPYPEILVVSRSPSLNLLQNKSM

On to `Oc1ccc(-c2cncc(NCc3ccc4c(c3)OCO4)c2)cc1` [Compound 126, 4-{5-[(Benzo[1,3]dioxol-5-ylmethyl)-amino]-pyridin-3-yl}-phenol], for which the inhibition at 10 µM at RICK and at ROCK 2 was 50 to 90% each time.
Consider `Oc1ccc(-c2cncc(NCc3ccc(F)c(F)c3)c2)cc1` [Compound 127, 4-[5-(3,4-Difluoro-benzylamino)-pyridin-3-yl]-phenol], for which the inhibition at 10 µM on RICK and at ROCK 2 was 50 to 90% each time.
For `COc1ccc(-c2cncc(NCc3cccc(O)c3)c2)cc1OC` [Compound 223, 3-{[5-(3,4-Dimethoxy-phenyl)-pyridin-3-ylamino]-methyl}-phenol], the inhibition at 10 µM is 50 to 90% at p56Lck, 50 to 90% on cRaf, 50 to 90% at Abl and over 90% on c-kit. Besides, the “Inhibitory effect on target RICK” value at RICK is listed as “C (C: IC50 measured: <1 μM)”. Besides, the “Inhibitory effect on target PDGFR” value in the experiment with PDGFR was “A (A: 50-90% inhibition at 10 μM enzyme concentration)”. Moreover, the “Inhibitory effect on target EGFR” value on EGFR is “A (A: 50-90% inhibition at 10 μM enzyme concentration)”.
For the compound `Oc1cccc(CNc2cncc(-c3cccc(O)c3)c2)c1` [Compound 225, 3-{5-[(3-Hydroxybenzyl)amino]pyridin-3-yl}phenol], the inhibition at 10 µM on p56Lck was over 90%; on cRaf, 50 to 90%; on Abl, 50 to 90%; on ROCK 2, 50 to 90%; on c-kit, over 90%. In addition, the “Inhibitory effect on target RICK” value on RICK is “C (C: IC50 measured: <1 μM)”. For the same compound, the “Inhibitory effect on target PDGFR” value in the experiment on PDGFR is recorded as “A (A: 50-90% inhibition at 10 μM enzyme concentration)”. Moreover, the “Inhibitory effect on target EGFR” value at EGFR was “A (A: 50-90% inhibition at 10 μM enzyme concentration)”.
As for `OCc1ccc(-c2cncc(NCc3cccc(O)c3)c2)cc1` [Compound 229, 3-{[5-(4-Hydroxymethyl-phenyl)-pyridin-3-ylamino]-methyl}-phenol], the inhibition at 10 µM was 50 to 90% at p56Lck; 50 to 90% at cRaf; 50 to 90% at Abl; 50 to 90% at ROCK 2; over 90% at c-kit. Further, at RICK, the “Inhibitory effect on target RICK” value is on record as “C (C: IC50 measured: <1 μM)”. Besides, in the experiment on PDGFR, the “Inhibitory effect on target PDGFR” value is recorded as “A (A: 50-90% inhibition at 10 μM enzyme concentration)”. Besides, the “Inhibitory effect on target EGFR” value on EGFR was “A (A: 50-90% inhibition at 10 μM enzyme concentration)”.
Consider `NC(=O)c1cccc(-c2cncc(NCc3cccc(O)c3)c2)c1` [Compound 230, 3-[5-(3-Hydroxy-benzylamino)-pyridin-3-yl]-benzamide], for which the inhibition at 10 µM on p56Lck was over 90%; at cRaf, 50 to 90%; at Abl, over 90%; at c-kit, over 90%. Moreover, at RICK, the “Inhibitory effect on target RICK” value is “C (C: IC50 measured: <1 μM)”. Besides, the “Inhibitory effect on target ROCK 2” value on ROCK 2 was “C (C: IC50 measured: <1 μM)”. Also, the “Inhibitory effect on target EGFR” value on EGFR is given as “A (A: 50-90% inhibition at 10 μM enzyme concentration)”.
As to `Nc1cccc(-c2cncc(NCc3cccc(O)c3)c2)c1` [Compound 232, 3-{[5-(3-Amino-phenyl)-pyridin-3-ylamino]-methyl}-phenol], the inhibition at 10 µM at p56Lck was over 90%; at cRaf, 50 to 90%; at Abl, over 90%; at c-kit, over 90%. In addition, the “Inhibitory effect on target RICK” value at RICK is recorded as “C (C: IC50 measured: <1 μM)”. Besides, the “Inhibitory effect on target PDGFR” value in the experiment on PDGFR was “A (A: 50-90% inhibition at 10 μM enzyme concentration)”. Moreover, the “Inhibitory effect on target EGFR” value on EGFR was “A (A: 50-90% inhibition at 10 μM enzyme concentration)”.
With `CC(=O)Nc1cccc(-c2cncc(Nc3ccc(F)cc3)c2)c1` [Compound 235, N-{3-[5-(4-Fluoro-phenylamino)-pyridin-3-yl]-phenyl}-acetamide], the “Inhibitory effect on target RICK” value at RICK was “C (C: IC50 measured: <1 μM)”. The “Inhibitory effect on target CDK1/CyclinB” value at CDK1/CyclinB is “A (A: 50-90% inhibition at 10 μM enzyme concentration)”. In addition, in the experiment on PDGFR, the “Inhibitory effect on target PDGFR” value was “A (A: 50-90% inhibition at 10 μM enzyme concentration)”. Moreover, the “Inhibitory effect on target EGFR” value on EGFR is “A (A: 50-90% inhibition at 10 μM enzyme concentration)”.
For `Oc1cccc(CNc2cncc(-c3ccccc3)c2)c1` [Compound 238, 3-[(5-Phenyl-pyridin-3-ylamino)-methyl]-phenol], the inhibition at 10 µM at p56Lck was 50 to 90%; at cRaf, 50 to 90%; at Abl it was 50 to 90%; at c-kit, over 90%. Moreover, the “Inhibitory effect on target RICK” value on RICK is “C (C: IC50 measured: <1 μM)”. Further, the “Inhibitory effect on target PDGFR” value in the experiment on PDGFR was “A (A: 50-90% inhibition at 10 μM enzyme concentration)”. Further, at EGFR, the “Inhibitory effect on target EGFR” value is on record as “A (A: 50-90% inhibition at 10 μM enzyme concentration)”.
Consider `COc1ccccc1Nc1cncc(-c2cccc(NC(C)=O)c2)c1` [Compound 240, N-{3-[5-(2-Methoxy-phenylamino)-pyridin-3-yl]-phenyl}-acetamide], for which, at p56Lck, the inhibition at 10 µM was in the range of 50 to 90%. For the same compound, the “Inhibitory effect on target RICK” value on RICK is listed as “C (C: IC50 measured: <1 μM)”. Moreover, the “Inhibitory effect on target CDK1/CyclinB” value on CDK1/CyclinB is “A (A: 50-90% inhibition at 10 μM enzyme concentration)”. In addition, the “Inhibitory effect on target PDGFR” value in the experiment on PDGFR is reported as “A (A: 50-90% inhibition at 10 μM enzyme concentration)”.
Take `COC(=O)c1cccc(-c2cncc(NCc3cccc(O)c3)c2)c1` [Compound 243, 3-[5-(3-Hydroxy-benzylamino)-pyridin-3-yl]-benzoic acid methyl ester]: the inhibition at 10 µM is over 90% at p56Lck; 50 to 90% at cRaf; 50 to 90% at Abl; 50 to 90% on ROCK 2; 50 to 90% on c-kit. Further, on RICK, the “Inhibitory effect on target RICK” value is listed as “C (C: IC50 measured: <1 μM)”. At CDK2/CyclinA, the “Inhibitory effect on target CDK2/CyclinA” value is “B (B: >90% inhibition at 10 μM enzyme concentration)”.
Take `O=C(O)c1cccc(-c2cncc(NCc3cccc(O)c3)c2)c1` [Compound 246, 3-[5-(3-Hydroxy-benzylamino)-pyridin-3-yl]-benzoic acid]: the inhibition at 10 µM is 50 to 90% on p56Lck, over 90% at cRaf, 50 to 90% on Abl and 50 to 90% at c-kit. In addition, the “Inhibitory effect on target RICK” value on RICK is “C (C: IC50 measured: <1 μM)”. The “Inhibitory effect on target PDGFR” value in the experiment with PDGFR is reported as “A (A: 50-90% inhibition at 10 μM enzyme concentration)”. In addition, the “Inhibitory effect on target EGFR” value on EGFR is given as “A (A: 50-90% inhibition at 10 μM enzyme concentration)”.
As to `Cc1ccc(CNc2cncc(-c3cccc(O)c3)c2)cc1O` [Compound 247, 5-{[5-(3-Hydroxy-phenyl)-pyridin-3-ylamino]-methyl}-2-methyl-phenol], at RICK, the “Inhibitory effect on target RICK” value was “C (C: IC50 measured: <1 μM)”. The “Inhibitory effect on target PDGFR” value in the experiment on PDGFR was “A (A: 50-90% inhibition at 10 μM enzyme concentration)”. Also, the inhibition at 10 µM on ROCK 2 and at c-kit was 50 to 90% in each case. Moreover, at EGFR, the “Inhibitory effect on target EGFR” value is on record as “A (A: 50-90% inhibition at 10 μM enzyme concentration)”.
